Source: patent US20040122209A1, “Products for regulating the degradation of collagen and methods for identifying same” (Shriners Hospital For Children, priority 2002, published 2004)

Tests used:
Assay type in all cases: cell-based
[1] = test system: MMP-1; assay: RT-PCR of MMP-1 mRNA in human chondrocyte culture; conditions: 24 hours incubation; data not shown
Source text: Isolated normal human chondrocytes were used for chondrocyte cultures, detection of integrin expression by FACScan, and cell attachment assays. The dissected normal human cartilage obtained at autopsy was cut into small cubes 2-4 mm in size. Chondrocytes were isolated as previously described (34), with some modifications. Briefly, the cubes were washed three times with medium (A). Thereafter, the diced cartilage was digested with 0.1% (wt/vol) trypsin (Sigma) and 0.02% (wt/vol) EDTA (Sigma) for 60 minutes (25 ml/10 g wet weight tissue) at 37° C. After washing the cartilage with Medium A containing 10% heat-inactivated fetal calf serum (FCS) to inhibit the trypsin, the digestion was continued in the same medium with serum (50 ml/10 g wet weight tissue) containing 0.2% (wt/vol) collagenase (type IA; Sigma) for 16 h at 37° C. with gentle agitation on a gyrotary shaker. Undigested cartilage was removed by filtration through a layer of nylon mesh (Cell Strainer; Becton Dickinson Labware, NJ). […]
Total RNA was isolated from chondrocytes or cartilage explants by the guanidine isothiocyanate procedure according to Chomczynski and Sacchi (Chomczynski, P. et al., Anal. Biochem. 162:156-9 (1987)) with some modifications. […] The total RNA pellet was resuspended in diethyl pyrocarbonate-treated (DEPC) water and the amount of total RNA was measured by reading optical density at 260 nm. […]

[2] = test system: MMP-1; assay: ELISA for MMP-1 in conditioned medium of human chondrocytes; conditions: 48 hours; CB12-II 50 μM, TNF-α 50 ng/ml
Protocol: First-passaged normal human chondrocytes isolated by the method described above and cultured at high density (2×10^5 cells/cm^2) were trypsinized and resuspended in Medium A containing 1% FCS at a density of 10^6 cells/ml. Then, 200 μl of the cell suspension was each plated onto round-bottomed 96-well culture plate. On the next day after plating, CB12-II at 50 μM, USP at 50 μM, and TNF-α at 50 ng/ml were added to the culture media, and the culture was maintained for 24-48 hours. Conditioned media were collected and subjected to ELISA assay. The ELISA kits (BIOTRAK) for MMP-1 and MMP-13 were purchased from Amersham Pharmacia Biotech (Piscataway, N.J.). Measurement range was 6.25-100 ng/ml for MMP-1 and 0.094-3 ng/ml for MMP-13. Sensitivity for the assay was 1.7 ng/ml for MMP-1 and 0.7 ng/ml for MMP-13.
Protein levels of MMP-1 and MMP-13 were also tested by incubating isolated human chondrocytes for 48 hours in high density culture (10^6 cells/ml) with CB12-II, negative control peptide USP, or cytokine TNF-α, as discussed above. MMP-1 and MMP-13 secretion into medium from the cells was measured using ELISA (see FIGS. 9A and 9B).

[3] = test system: adult bovine articular cartilage; assay: RT-PCR of hypertrophy and degradation genes in bovine articular cartilage explant culture
Protocol: Total RNA was isolated from chondrocytes or cartilage explants by the guanidine isothiocyanate procedure according to Chomczynski and Sacchi (Chomczynski, P. et al., Anal. Biochem. 162:156-9 (1987)) with some modifications. Briefly, chondrocytes (1-2×10^6 cells) or cartilage tissue (200-300 mg) were solubilized in solution D (4 M guanidine isothiocyanate, 20 mM sodium acetate/pH 5.2, 0.1 M 2-mercaptoethanol and 0.5% N-lauroylsarcosine). One volume of isopropanol was added to the mixture and all proteins and nucleic acids were precipitated at −20° C. overnight. […] The total RNA pellet was resuspended in diethyl pyrocarbonate-treated (DEPC) water and the amount of total RNA was measured by reading optical density at 260 nm. […]
One microliter of reverse transcribed total RNA was incubated with 2.5 U of AmpliTaq™ DNA polymerase (Perkin Elmer, Branchburg, N.J.) in 50 mM KCl, 1.5 mM MgCl2, 10 mM Tris-HCl, pH 8.3, 200 μM dNTP mix and 0.5 μmol each of oligonucleotide primers in 50 μl reaction mixture. […] The digital images of the gel were analyzed using NIH 1.60 imaging software to evaluate the pixel intensity of the band of the PCR products. […] The band intensities were determined to be below saturation. […]
MMP-13 expression was maximal by 12 days. Gene expression was determined by RT-PCR analyses of mRNA in the manner used to detect expression of MMPs and cytokines described elsewhere. […]

ERGPPGPQGARGFPGTPGLPGVK [CB12-II]
MMP-1 gene expression (mRNA by RT-PCR) [1]: clearly induced
MMP-1 secretion into medium versus no peptide and negative control peptide (USP) [2]: significantly higher
time at which MMP-13 expression was maximal [3]: ≤ 12 days
expression of genes characteristic of chondrocyte hypertrophy (COLX, MMP-9, TGF-B1, IHH, MMP-13, CBFA1, SOX 9, bFGF, pTHrP, caspase-3, MT1-MMP, IL-1B, MMP-1) ([3]; induction within a 24-48 hr period): rapid induction
